Assay results as given in publication PMC4001772 (The Journal of General Physiology, 2014).

Tests used:
Assay in all cases: inside-out patch clamp of Xenopus oocytes
Type in all cases: cell-based
[1] = target: T1, CFTR (Homo sapiens, UniProt P13569)
[2] = target: CFTR (Homo sapiens, UniProt P13569, E1371S)
[3] = target: CFTR (Homo sapiens, UniProt P13569, K1250A)
[4] = target: T1, CFTR; remark: listed apart in the source

Chain of CFTR (Homo sapiens, UniProt P13569, E1371S) (P13569 whole entry E1371S): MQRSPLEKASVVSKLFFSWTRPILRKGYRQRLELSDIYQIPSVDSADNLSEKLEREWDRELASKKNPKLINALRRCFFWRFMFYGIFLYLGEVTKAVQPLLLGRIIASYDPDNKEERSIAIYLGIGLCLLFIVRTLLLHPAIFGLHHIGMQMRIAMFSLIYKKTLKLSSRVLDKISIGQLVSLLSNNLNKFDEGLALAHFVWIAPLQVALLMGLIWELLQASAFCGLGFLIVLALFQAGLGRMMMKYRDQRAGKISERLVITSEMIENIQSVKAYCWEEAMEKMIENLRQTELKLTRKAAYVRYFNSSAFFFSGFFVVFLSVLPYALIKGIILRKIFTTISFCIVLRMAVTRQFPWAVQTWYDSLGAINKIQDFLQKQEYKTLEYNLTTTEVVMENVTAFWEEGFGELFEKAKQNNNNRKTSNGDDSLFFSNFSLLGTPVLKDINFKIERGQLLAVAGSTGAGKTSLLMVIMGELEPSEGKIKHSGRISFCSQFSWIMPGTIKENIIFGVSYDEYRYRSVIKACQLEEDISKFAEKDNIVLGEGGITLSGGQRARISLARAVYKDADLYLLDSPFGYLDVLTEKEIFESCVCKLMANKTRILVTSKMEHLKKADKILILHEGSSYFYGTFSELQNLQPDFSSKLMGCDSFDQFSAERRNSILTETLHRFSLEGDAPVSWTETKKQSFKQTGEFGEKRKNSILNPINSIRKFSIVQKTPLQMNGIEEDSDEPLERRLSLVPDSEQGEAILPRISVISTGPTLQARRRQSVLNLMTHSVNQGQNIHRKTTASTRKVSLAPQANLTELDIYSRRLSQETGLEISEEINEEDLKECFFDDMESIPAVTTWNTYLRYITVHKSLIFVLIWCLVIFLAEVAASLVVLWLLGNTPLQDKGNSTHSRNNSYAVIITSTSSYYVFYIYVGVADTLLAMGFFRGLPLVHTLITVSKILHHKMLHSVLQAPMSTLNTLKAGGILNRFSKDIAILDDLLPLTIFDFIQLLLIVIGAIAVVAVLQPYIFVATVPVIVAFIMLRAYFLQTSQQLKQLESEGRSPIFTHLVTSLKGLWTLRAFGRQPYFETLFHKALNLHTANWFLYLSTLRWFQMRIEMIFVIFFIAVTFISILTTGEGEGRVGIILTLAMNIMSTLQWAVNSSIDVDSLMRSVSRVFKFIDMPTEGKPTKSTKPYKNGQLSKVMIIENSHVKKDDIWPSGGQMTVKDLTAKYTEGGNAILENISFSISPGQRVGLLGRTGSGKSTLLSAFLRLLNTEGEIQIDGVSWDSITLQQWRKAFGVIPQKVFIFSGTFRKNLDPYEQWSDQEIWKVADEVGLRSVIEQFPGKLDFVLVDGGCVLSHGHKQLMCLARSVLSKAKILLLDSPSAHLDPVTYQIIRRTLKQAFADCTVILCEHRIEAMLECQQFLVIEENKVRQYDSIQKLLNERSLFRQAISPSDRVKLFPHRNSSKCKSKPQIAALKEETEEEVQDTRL
T1 sequence (P13569 whole entry): as the sequence (P13569 whole entry E1371S) above, with S1371E counted along it
Chain of CFTR (Homo sapiens, UniProt P13569, K1250A) (P13569 whole entry K1250A): as the sequence (P13569 whole entry E1371S) above, with K1250A, S1371E counted along it

Ki [1] [µM]	Ki [2] [µM]	EC50 [3] [µM]	EC50 [4] [µM]	Compound
~15000	~8000	–	–	O=S(=O)(O)CCCN1CCOCC1 [MOPS]
–	~20	~100	~90	O=C(O)c1cc([N+](=O)[O-])ccc1NCCCc1ccccc1 [NPPB, 5-nitro-2-(3-phenylpropylamino)benzoate]
